Measurements published in patent publication US10611778B2, “Fused bicyclic inhibitors of menin-MLL interaction” (Janssen Pharmaceutica NV, priority 2016, dated 2020).

How the values were obtained:
[1] = target: T1, Menin/MLL (menin, FITC-MBM1 peptide) (Homo sapiens, UniProt O00255, T541A); assay: Menin/MLL fluorescence polarization (FP) assay; format: binding; details: averaged values over all measurements; read-out: Menin FP assay (IC50)
T1 construct: 6xHis (C)
T1 sequence (O00255 with tags, fused parts or gaps T541A): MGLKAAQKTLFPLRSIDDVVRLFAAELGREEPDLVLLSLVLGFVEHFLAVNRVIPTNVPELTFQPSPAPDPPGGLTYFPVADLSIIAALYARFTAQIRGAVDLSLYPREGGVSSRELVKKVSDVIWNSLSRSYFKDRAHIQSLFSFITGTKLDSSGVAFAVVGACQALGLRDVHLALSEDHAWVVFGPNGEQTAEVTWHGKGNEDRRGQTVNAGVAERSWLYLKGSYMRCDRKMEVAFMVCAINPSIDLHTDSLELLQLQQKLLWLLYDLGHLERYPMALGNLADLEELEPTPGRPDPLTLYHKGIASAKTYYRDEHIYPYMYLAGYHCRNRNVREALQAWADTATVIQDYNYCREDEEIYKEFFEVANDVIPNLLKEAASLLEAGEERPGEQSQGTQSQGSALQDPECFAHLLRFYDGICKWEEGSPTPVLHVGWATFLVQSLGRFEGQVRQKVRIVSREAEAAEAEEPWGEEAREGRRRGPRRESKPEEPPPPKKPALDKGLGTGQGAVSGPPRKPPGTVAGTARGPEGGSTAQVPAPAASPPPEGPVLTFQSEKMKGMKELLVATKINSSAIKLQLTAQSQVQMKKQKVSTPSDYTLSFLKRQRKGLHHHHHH
Method: Pharmacological Part 1) Menin/MLL Fluorescence Polarization Assay
To a non-surface binding, black 384-well microtiter plate was added 50 nL 160× test compound in DMSO and 4 μL 2× menin in assay buffer (40 mM Tris-HCl, pH 7.5, 50 mM NaCl, 1 mM DTT and 0.001% Tween 20). After incubation of test compound and menin for 10 min at ambient temperature, 4 μL 2×FITC-MBM1 peptide (FITC-β-alanine-SARWRFPARPGT-NH2) in assay buffer was added, the microtiter plate centrifuged at 1000 rpm for 1 min and the assay mixtures incubated for 15 min at ambient temperature. The relative amount of menin: FITC-MBM1 complex present in an assay mixture is determined by measuring the fluorescence polarization (FP) of the FITC label with a BMG Pherastar plate reader (ex. 485 nm/em. 520 nm) at ambient temperature. The final concentrations of reagents in the binding assay are 100 nM menin, 5 nM FITC-MBM1 peptide and 0.625% DMSO in assay buffer. Dose-response titrations of test compounds are conducted using an 11 point, three-fold serial dilution scheme, starting at 31 μM.
Compound potencies were determined by first calculating % inhibition at each compound concentration according to equation 1: % inhibition=((HC−LC)−(FP^compound−LC))/(HC−LC))*100 (Eqn 1)
(§1) Where LC and HC are the FP values of the assay in the presence or absence of a saturating concentration of a compound that competes with FITC-MBM1 for binding to menin, and FP^compound is the measured FP value in the presence of the test compound. HC and LC FP values represent an average of at least 16 replicates per plate.
(§2) Where Bottom and Top are the lower and upper asymptotes of the dose-response curve, respectively, IC50 is the concentration of compound that yields 50% inhibition of signal and h is the Hill coefficient.

[2] = target: T2, Menin/MLL (terbium chelate-labeled menin, FITC-MBM1 peptide) (Homo sapiens, UniProt O00255, T541A); assay: Menin/MLL homogenous time-resolved fluorescence (HTRF) assay; format: binding; details: averaged values over all measurements; read-out: Menin HTRF assay (IC50)
T2 construct: Menin (a.a. 1-610-6×his tag) was labeled with terbium cryptate as follows
T2 sequence (O00255 with tags, fused parts or gaps T541A): T1 sequence (O00255 with tags, fused parts or gaps T541A)
Method: 3) Menin/MLL Homogenous Time-Resolved Fluorescence (HTRF) Assay
To an untreated, white 384-well microtiter plate was added 40 nL 200× test compound in DMSO and 4 μL 2× terbium chelate-labeled menin (vide infra for preparation) in assay buffer (40 mM Tris-HCl, pH 7.5, 50 mM NaCl, 1 mM DTT and 0.05% Pluronic F-127). After incubation of test compound and terbium chelate-labeled menin for 5 min at ambient temperature, 4 μL 2×FITC-MBM1 peptide (FITC-β-alanine-SARWRFPARPGT-NH2) in assay buffer was added, the microtiter plate centrifuged at 1000 rpm for 1 min and the assay mixtures incubated for 15 min at ambient temperature. The relative amount of menin⋅FITC-MBM1 complex present in an assay mixture is determined by measuring the homogenous time-resolved fluorescence (HTRF) of the terbium/FITC donor/acceptor fluorophore pair using a BMG Pherastar plate reader (ex. 337 nm/terbium em. 490 nm/FITC em. 520 nm) at ambient temperature. The degree of fluorescence resonance energy transfer (the HTRF value) is expressed as the ratio of the fluorescence emission intensities of the FITC and terbium fluorophores (F^em 520 nm/F^em 490 nm). The final concentrations of reagents in the binding assay are 100 pM terbium chelate-labeled menin, 75 nM FITC-MBM1 peptide and 0.5% DMSO in assay buffer. Dose-response titrations of test compounds are conducted using an 11 point, three-fold serial dilution scheme, starting at 31 μM.
Compound potencies were determined by first calculating % inhibition at each compound concentration according to equation 1: % inhibition=((HC−LC)−(HTRF^compound−LC))/(HC−LC))*100 (Eqn 1)
as §1, with “HTRF” for “FP”, “HTRF^compound” for “FP^compound”
as §2
Preparation of Terbium cryptate labeling of Menin: Menin (a.a. 1-610-6×his tag) was labeled with terbium cryptate as follows. 2 mg of Menin was buffer exchanged into 1× phosphate buffered saline. 16 uM Menin was incubated with 4-fold molar excess NHS-terbium cryptate (Cisbio Bioassays, Bedford, Mass.) for 2 hours at room temperature. The labeled protein was purified away from free label by running the reaction over a Superdex 200 Increase 10/300 GL column at 0.75 ml/min. Peak fractions were collected, aliquoted and frozen at −80° C.

MV-4-11 = assay: Proliferation assay (spheroid assay) MV-4-11; format: cell-based, human; details: Homo sapiens, MV4-11, MV-4-11; averaged values over all measurements; read-out: Spheroid assay MV-4-11 (IC50)
Method: (§3) The anti-proliferative effect of menin/MLL protein/protein interaction inhibitor test compounds was assessed in human leukemia cell lines. The cell lines MV-4-11 and MOLM14 harbor MLL translocations and express the MLL fusion proteins MLL-AF4 and MLL-AF9, respectively, as well as the wildtype protein from the second allele. […] K562 and KG1 were used as a control cell lines containing two MLL wildtype alleles in order to exclude compounds that display general cytotoxic effects.
(§4) MV-4-11 and MOLM14 were cultured in RPMI-1640 (Sigma Aldrich) supplemented with 10% fetal bovine serum (HyClone), 2 mM L-glutamine (Sigma Aldrich) and 50 μg/ml gentamycin (Gibco). K562 were propagated in RPMI-1640 (Sigma Aldrich) supplemented with 20% fetal bovine serum (HyClone), 2 mM L-glutamine (Sigma Aldrich) and 50 μg/ml gentamycin (Gibco). KG1 were cultured in Iscove's MDM (Gibco) supplemented with 20% fetal bovine serum (HyClone), 2 mM L-glutamine (Sigma Aldrich) and 50 μg/ml gentamycin (Gibco).
(§5) In order to assess the anti-proliferative effects, 1,500 MV-4-11, 300 MOLM14, 750 K562 or 1,300 KG1 cells were seeded in 200 μl media per well in 96-well round bottom, ultra-low attachment plates (Costar, catalogue number 7007). Cell seeding numbers were chosen based on growth curves to ensure linear growth throughout the experiment. Test compounds were added at different concentrations and the DMSO content was normalized to 0.3%. Cells were incubated for 8 d at 37° C. and 5% CO2. Spheroid like growth was monitored in real-time by live-cell imaging (IncuCyteZOOM, Essenbio, 4× objective) acquiring one image every four hours for 8 d. Confluence (%) as a measure of spheroid size was determined using an integrated analysis tool.
(§6) In order to determine the cumulative effect of the test compounds over time, the area under the curve (AUC) in a plot of confluence against time was calculated. Confluence at the beginning of the experiment (t=0) was used as baseline for the AUC calculation.
(§7) Absolute IC50 values were calculated according to the following procedure: % Control=(AUC sample/AUC control)*100
(§8) AUC control=mean AUC of control values (cells without compound/DMSO as vehicle control)
(§9) A non-linear curve fit was applied using the least squares (ordinary) fit method to the plot of % control versus compound concentration. Based on this, the absolute IC50 value (half maximal inhibitory concentration of the test compound causing an anti-proliferative effect of 50% relative to the vehicle control) was calculated.

MOLM14 = assay: Proliferation assay (spheroid assay) MOLM14; format: cell-based, human; details: Homo sapiens, MOLM-14, MOLM14; averaged values over all measurements; read-out: Spheroid assay MOLM14 (IC50)
Method: as §3, §4, §5, §6, §7, §8, §9

| SMILES | IC50 [1] [nM] | IC50 [2] [nM] | IC50 (MV-4-11) [nM] | IC50 (MOLM14) [µM] |
| --- | --- | --- | --- | --- |
| Cn1cc(CN2CCCC3C2CCN3c2ncnc3sc(CC(F)(F)F)cc23)cn1 (stereo not drawn) [Compound 21] | 1770 | 2120 | – | – |
| Cn1cc(CN2CC[C@@H]3CN(c4ncnc5sc(CC(F)(F)F)cc45)C[C@@H]32)cn1 [Compound 27A] | 4540 | 10000 | – | – |
| NCCn1cc(CN2CCC3CN(c4ncnc5sc(CC(F)(F)F)cc45)CCC32)cn1 (stereo not drawn) [Compound 26] | – | 54 | 4700 | 5.6 |
| FC(F)(F)Cc1cc2c(N3C[C@@H]4CN(Cc5ccccc5)[C@@H]4C3)ncnc2s1 [Compound 32] | 1560 | 2780 | – | – |
| O=S(=O)(c1ccccc1)N1CC[C@H]2CN(c3ncnc4sc(CC(F)(F)F)cc34)CC[C@H]21 (single isomer, unassigned) [Compound 17] | 1850 | – | – | – |
| Cn1cc(CN2CC3CCN(c4ncnc5sc(CC(F)(F)F)cc45)CC3C2)cn1 (stereo not drawn) [Compound 34] | 780 | 1980 | – | – |
| O=S(=O)(c1ccccc1)N1CC[C@@H]2CN(c3ncnc4sc(CC(F)(F)F)cc34)CC[C@@H]21 [Compound 16] | 1530 | – | – | – |
| FC(F)(F)Cc1cc2c(N3CCC4C(CCN4Cc4ncc[nH]4)C3)ncnc2s1 (stereo not drawn) [Compound 22] | 2410 | – | – | – |
| CC(C)CN1CC[C@@H]2CN(c3ncnc4sc(CC(F)(F)F)cc34)C[C@@H]21 (single isomer, unassigned) [Compound 28A] | 1170 | 1730 | – | – |
| COCCn1cc(CN2CC[C@@H]3CN(c4ncnc5sc(CC(F)(F)F)cc45)C[C@@H]3C2)cn1 (single isomer, unassigned) [Compound 97] | – | 150 | 2000 | – |
| FC(F)(F)Cc1cc2c(N3CC[C@@H]4[C@@H](CCN4Cc4ccc[nH]4)C3)ncnc2s1 (single isomer, unassigned) [Compound 85] | – | 103 | 3100 | – |
| CC(=O)N1CCC(CN2CC[C@@H]3CN(c4ncnc5sc(CC(F)(F)F)cc45)C[C@@H]3C2)CC1 (single isomer, unassigned) [Compound 76] | – | 105 | 2900 | – |
| Cn1ccc(CN2CC[C@@H]3CN(c4ncnc5sc(CC(F)(F)F)cc45)CC[C@@H]32)n1 (single isomer, unassigned) [Compound 14] | 1120 | – | – | – |
| Cn1ccc(CN2CC[C@@H]3CN(c4ncnc5sc(CC(F)(F)F)cc45)C[C@@H]3C2)cc1=O (single isomer, unassigned) [Compound 68] | – | 266 | 2900 | – |
| O=C(c1ccncc1)N1CCC(CN2CC[C@@H]3CN(c4ncnc5sc(CC(F)(F)F)cc45)C[C@@H]3C2)CC1 (single isomer, unassigned) [Compound 108] | – | 23 | 870 | – |
| CC(CN1CC[C@@H]2CN(c3ncnc4sc(CC(F)(F)F)cc34)C[C@@H]2C1)c1ccccc1 (single isomer, unassigned) [Compound 49] | – | 44 | 1900 | – |
| CNc1cc(CN2CC[C@@H]3CN(c4ncnc5sc(CC(F)(F)F)cc45)C[C@@H]3C2)ccn1 (single isomer, unassigned) [Compound 107] | – | 23 | 340 | – |
| O=C(C1CCCOC1)N1CCC(CN2CC[C@@H]3CN(c4ncnc5sc(CC(F)(F)F)cc45)C[C@@H]3C2)CC1 (single isomer, unassigned) [Compound 92] | – | 14 | 450 | – |
| FC(F)(F)Cc1cc2c(N3C[C@H]4CCN(Cc5cnoc5)C[C@H]4C3)ncnc2s1 (single isomer, unassigned) [Compound 51] | – | 62 | 2300 | – |
| CC(CN1CC[C@@H]2CN(c3ncnc4sc(CC(F)(F)F)cc34)C[C@@H]2C1)C(F)(F)F (single isomer, unassigned) [Compound 47] | – | 55 | 2300 | – |
| O=C(c1cccnc1)N1CCC(CN2CC[C@@H]3CN(c4ncnc5sc(CC(F)(F)F)cc45)C[C@@H]3C2)CC1 (single isomer, unassigned) [Compound 96] | – | 45 | 1000 | – |
